{"source": "patent US20140000882A1", "about": "“PETROLEUM RECOVERY PROCESS AND SYSTEM” (Shell Oil Company, priority 2012, published 2014)", "experiment": "Oil recovery from formation core by brine displacement followed by DMS displacement", "conditions": "after waterflooding with brine", "method": "Incremental recovery of oil from a formation core using an oil recovery formulation consisting of dimethyl sulfide following oil recovery from the core by water-flooding was measured to evaluate the effectiveness of DMS as a tertiary oil recovery agent.\nTwo 5.02 cm long Berea sandstone cores with a core diameter of 3.78 cm and a permeability between 925 and 1325 mD were saturated with a brine having a composition as set forth in Table 7.\nAfter saturation of the cores with brine, the brine was displaced by a Middle Eastern Asphaltic crude oil having the characteristics as set forth above in Table 3 to saturate the cores with oil.\nOil was recovered from each oil saturated core by the addition of brine to the core under pressure and by subsequent addition of DMS to the core under pressure. Each core was treated as follows to determine the amount of oil recovered from the core by addition of brine followed by addition of DMS. Oil was initially displaced from the core by addition of brine to the core under pressure. A confining pressure of 1 MPa was applied to the core during addition of the brine, and the flow rate of brine to the core was set at 0.05 ml/min. The core was maintained at a temperature of 50° C. during displacement of oil from the core with brine. […]"}
{"smiles": "CSC", "note": "[Dimethyl Sulfide, dimethyl sulfide]", "values": [{"measurement": "oil remaining in the core after the waterflood recovered", "value": "approximately 60%"}]}
